Literature values as cited in patent US20240315993A1, “ANTIPARASITIC COMPOUNDS” (Intervet Inc., priority 2021, published 2024).

What was measured:
[1] = tested on: Beet Armyworm (Spodoptera exigua); details: 128-well diet tray, average of eight wells, cited from earlier work; for Test A: Bioassay on BAW, percent mortality rating: Beet Armyworm second instar larvae, 50 μg/cm^2, five to seven days; for Test A: percent mortality of Beet Armyworm (BAW) larvae, rating: 50 μg/cm^2 on artificial diet, second instar larvae, 5-7 days
[2] = tested on: Yellow Fever Mosquito (Aedes aegypti); details: Aedes aegypti larvae about 1 day old, 96-well plate, scored after 3 days; cited from earlier work
[3] = tested on: Cabbage Looper (Trichoplusia ni); details: 128-well diet tray, average of eight wells, cited from earlier work; for Test B: Bioassay on CL, percent mortality rating: Cabbage Looper second instar larvae, 50 μg/cm^2, five to seven days; for Test B: percent mortality of Cabbage Looper (CL) larvae, rating: 50 μg/cm^2 on artificial diet, second instar larvae, 5-7 days

Row | Compound | Test A: Bioassay on BAW, percent mortality rating [1] | Test C: Bioassay on Yellow Fever Mosquito, mortality rating [2] | Test B: Bioassay on CL, percent mortality rating [3] | Test A: percent mortality of Beet Armyworm (BAW) larvae, rating [1] | Test B: percent mortality of Cabbage Looper (CL) larvae, rating [3]
1 | O=C(Nc1ccc(-n2ccnc2)cc1)c1cc(NC(=O)[C@H]2[C@H](c3cc(Cl)cc(Cl)c3)C2(Cl)Cl)ccc1Cl [c1] | A (50-100) | A (80-100) | A (50-100) |  | 
2 | O=C(Nc1ccc(-n2cncn2)cc1)c1cc(NC(=O)[C@H]2[C@H](c3cc(Cl)cc(Cl)c3)C2(Cl)Cl)ccc1Cl [c2] | A (50-100) | A (80-100) | A (50-100) |  | 
3 | Cc1cc(C(F)(C(F)(F)F)C(F)(F)F)cc(C)c1NC(=O)c1cc(NC(=O)[C@H]2[C@H](c3cc(Cl)cc(Cl)c3)C2(Cl)Cl)ccc1Cl [c3] | A (50-100) | D (No activity noticed in this bioassay) | A (50-100) |  | 
4 | O=C(Nc1ccc(NC(=O)C2CC2)cc1)c1cc(NC(=O)[C@H]2[C@H](c3cc(Cl)cc(Cl)c3)C2(Cl)Cl)ccc1Cl [c4] | A (50-100) | A (80-100) | A (50-100) |  | 
5 | O=C(CC1CC1)Nc1ccc(NC(=O)c2cc(NC(=O)[C@H]3[C@H](c4cc(Cl)cc(Cl)c4)C3(Cl)Cl)ccc2Cl)cc1 [c5] | A (50-100) | A (80-100) | A (50-100) |  | 
6 | COCC1(C(=O)Nc2ccc(NC(=O)c3cc(NC(=O)[C@H]4[C@H](c5cc(Cl)cc(Cl)c5)C4(Cl)Cl)ccc3Cl)cc2)CC1 [c6] | A (50-100) | A (80-100) | A (50-100) |  | 
7 | O=C(Nc1ccc(NC(=O)C2CC2(F)F)cc1)c1cc(NC(=O)[C@H]2[C@H](c3cc(Cl)cc(Cl)c3)C2(Cl)Cl)ccc1Cl (stereo partly shown) [c7] | A (50-100) | A (80-100) | A (50-100) |  | 
8 | CC(C)(C)CC(=O)Nc1ccc(NC(=O)c2cc(NC(=O)[C@H]3[C@H](c4cc(Cl)cc(Cl)c4)C3(Cl)Cl)ccc2Cl)cc1 [c8] | A (50-100) | D (No activity noticed in this bioassay) | A (50-100) |  | 
9 | O=C(Nc1ccc(-n2cnnc2)cc1)c1cc(NC(=O)[C@H]2[C@H](c3cc(Cl)cc(Cl)c3)C2(Cl)Cl)ccc1Cl [c9] | A (50-100) | A (80-100) | A (50-100) |  | 
10 | CC(=O)Nc1ccc(NC(=O)c2cc(NC(=O)[C@H]3[C@H](c4cc(Cl)cc(Cl)c4)C3(Cl)Cl)ccc2Cl)c(C)c1 [c10] | A (50-100) | A (80-100) | A (50-100) |  | 
11 | O=C(Nc1ccc2ncsc2c1)c1cc(NC(=O)C2C(c3cc(Cl)cc(Cl)c3)C2(Cl)Cl)ccc1Cl (stereo not shown) [c11] | A (50-100) | A (80-100) | A (50-100) |  | 
12 | O=C(Nc1ccc2[nH]ccc2c1)c1cc(NC(=O)C2C(c3cc(Cl)cc(Cl)c3)C2(Cl)Cl)ccc1Cl (stereo not shown) [c12] | A (50-100) | A (80-100) | A (50-100) |  | 
13 | O=C(Nc1ccc2cccnc2c1)c1cc(NC(=O)C2C(c3cc(Cl)cc(Cl)c3)C2(Cl)Cl)ccc1Cl (stereo not shown) [c13] | A (50-100) | B (More than 0 - Less than 80) | A (50-100) |  | 
14 | O=C(Nc1cnc2cc[nH]c2c1)c1cc(NC(=O)C2C(c3cc(Cl)cc(Cl)c3)C2(Cl)Cl)ccc1Cl (stereo not shown) [c14] | A (50-100) | B (More than 0 - Less than 80) | A (50-100) |  | 
15 | O=C(Nc1ccc2nc(Cl)[nH]c2c1)c1cc(NC(=O)C2C(c3cc(Cl)cc(Cl)c3)C2(Cl)Cl)ccc1Cl (stereo not shown) [c15] | A (50-100) | B (More than 0 - Less than 80) | A (50-100) |  | 
16 | COC(=O)Nc1ccc(NC(=O)c2cc(NC(=O)[C@H]3[C@H](c4cc(Cl)cc(Cl)c4)C3(Cl)Cl)ccc2Cl)cc1 [c16] | A (50-100) | B (More than 0 - Less than 80) | A (50-100) |  | 
17 | O=C(Nc1cc(C(F)(F)F)[nH]n1)c1cc(NC(=O)[C@H]2[C@H](c3cc(Cl)cc(Cl)c3)C2(Cl)Cl)ccc1Cl [c17] | A (50-100) | D (No activity noticed in this bioassay) | A (50-100) |  | 

Row | Compound | Test A: Bioassay on BAW, percent mortality rating [1] | Test C: Bioassay on Yellow Fever Mosquito, mortality rating [2] | Test B: Bioassay on CL, percent mortality rating [3] | Test A: percent mortality of Beet Armyworm (BAW) larvae, rating [1] | Test B: percent mortality of Cabbage Looper (CL) larvae, rating [3]
18 | O=C(Nc1ccc(-n2cccn2)cc1)c1cc(NC(=O)C2C(c3cc(Cl)cc(Cl)c3)C2(Cl)Cl)ccc1Cl (stereo not shown) [c18] | A (50-100) | A (80-100) | A (50-100) |  | 
19 | O=C(Nc1nc2ccccc2s1)c1cc(NC(=O)C2C(c3cc(Cl)cc(Cl)c3)C2(Cl)Cl)ccc1Cl (stereo not shown) [c19] | A (50-100) | B (More than 0 - Less than 80) | A (50-100) |  | 
20 | COc1c(Cl)cc(C2C(C(=O)Nc3ccc(Cl)c(C(=O)Nc4ccc(NC(C)=O)cc4)c3)C2(Cl)Cl)cc1Cl (stereo not shown) [c20] | A (50-100) | D (No activity noticed in this bioassay) | A (50-100) |  | 
21 | CNc1ccc(NC(=O)c2cc(NC(=O)C3C(c4cc(Cl)c(OC)c(Cl)c4)C3(Cl)Cl)ccc2Cl)cc1 (stereo not shown) [c21] | A (50-100) | D (No activity noticed in this bioassay) | A (50-100) |  | 
22 | O=C(Nc1nnn[nH]1)c1cc(NC(=O)[C@H]2[C@H](c3cc(Cl)cc(Cl)c3)C2(Cl)Cl)ccc1Cl [c22] | A (50-100) | B (More than 0 - Less than 80) | A (50-100) |  | 
23 | O=C(Nc1ccc(-c2ncco2)cc1)c1cc(NC(=O)C2C(c3cc(Cl)cc(Cl)c3)C2(Cl)Cl)ccc1Cl (stereo not shown) [c23] | A (50-100) | D (No activity noticed in this bioassay) | A (50-100) |  | 
24 | Cc1ccc(-c2csc(NC(=O)c3cc(NC(=O)[C@H]4[C@H](c5cc(Cl)cc(Cl)c5)C4(Cl)Cl)ccc3Cl)n2)cc1 [c24] | A (50-100) | D (No activity noticed in this bioassay) | A (50-100) |  | 
25 | O=C(Nc1c[nH]c(=O)[nH]c1=O)c1cc(NC(=O)[C@H]2[C@H](c3cc(Cl)cc(Cl)c3)C2(Cl)Cl)ccc1Cl [c25] | A (50-100) | B (More than 0 - Less than 80) | A (50-100) |  | 
26 | O=C(Nc1nc2ccccc2o1)c1cc(NC(=O)C2C(c3cc(Cl)cc(Cl)c3)C2(Cl)Cl)ccc1Cl (stereo not shown) [c26] | A (50-100) | A (80-100) | A (50-100) |  | 
27 | O=C(Nc1ccc2ncoc2c1)c1cc(NC(=O)C2C(c3cc(Cl)cc(Cl)c3)C2(Cl)Cl)ccc1Cl (stereo not shown) [c27] | A (50-100) | A (80-100) | A (50-100) |  | 
28 | O=C(Nc1ccc2sccc2c1)c1cc(NC(=O)C2C(c3cc(Cl)cc(Cl)c3)C2(Cl)Cl)ccc1Cl (stereo not shown) [c28] | A (50-100) | A (80-100) | A (50-100) |  | 
29 | Nc1cccc(NC(=O)c2cc(NC(=O)C3C(c4cc(Cl)cc(Cl)c4)C3(Cl)Cl)ccc2Cl)c1 (stereo not shown) [c29] | A (50-100) | A (80-100) | A (50-100) |  | 
30 | CNc1cccc(NC(=O)c2cc(NC(=O)C3C(c4cc(Cl)cc(Cl)c4)C3(Cl)Cl)ccc2Cl)c1 (stereo not shown) [c30] | A (50-100) | A (80-100) | A (50-100) |  | 
31 | Cc1ccc(NC(=O)c2cc(NC(=O)C3C(c4cc(Cl)cc(Cl)c4)C3(Cl)Cl)ccc2Cl)cc1N (stereo not shown) [c31] | A (50-100) | B (More than 0 - Less than 80) | A (50-100) |  | 
32 | Cc1cc2cc(NC(=O)c3cc(NC(=O)C4C(c5cc(Cl)cc(Cl)c5)C4(Cl)Cl)ccc3Cl)ccc2[nH]1 (stereo not shown) [c32] | A (50-100) | A (80-100) | A (50-100) |  | 
33 | CC(=O)OCCNc1ccc(NC(=O)c2cc(NC(=O)C3C(c4ccc(F)c(C(F)(F)F)c4)C3(Cl)Cl)ccc2Cl)c(C)c1 (stereo not shown) [c119] |  |  |  | A (50-100) | A (50-100)
34 | Cc1cc(NCCO)ccc1NC(=O)c1cc(NC(=O)C2C(c3ccc(F)c(C(F)(F)F)c3)C2(Cl)Cl)ccc1Cl (stereo not shown) [c120] |  |  |  | A (50-100) | A (50-100)
